From article PMC9240925, “Mechanistic study of the solubilization effect of basic amino acids on a poorly water-soluble drug” (RSC Advances, 2022)
Values after ≈ are worked out from the molar mass of the structure shown. Read-outs that look alike come from different tables or passages of the source. Values belong to the compound of their own block, whether it stands above or below them.

Columns and labels:
[1] = design: method as in ref 34 = [34]; Robert C. W. , Handbook of Chemistry and Physics , ed. R. C. Weast , CRC Press , Ohio , 55th edn, 1975; conditions: at 25 °C; cited from earlier work
[2] = cited from earlier work
[3] = design: method as in ref 34 = [34]; Robert C. W. , Handbook of Chemistry and Physics , ed. R. C. Weast , CRC Press , Ohio , 55th edn, 1975; conditions: cited from earlier work
[4] = Differential scanning calorimetry, glass transition; type: physicochemical; conditions: for Tg, Gordon–Taylor (glass transition temperature): calculated by Gordon–Taylor equation with crystalline densities
Protocol: DSC was performed using a Q20 instrument V24.7 build 119 thermal analysis system with an intercooler system (Elstree, United Kingdom). The DSC system was calibrated and validated using indium (average melting temperature 156.36 ± 0.03 °C and enthalpy 29.81 ± 0.05 J g^−1). Powder samples of 1 to 5 mg were weighed in T-zero aluminum pans with T-zero lids (TA Instruments – A Division of Waters Ltd, Centennial Avenue, Elstree, Hertfordshire, United Kingdom). […] All results were analyzed using the TRIOS software for the phases transitions to determine the glass transition temperature (Tg) and melting point (Tm).
Indomethacin (as received) was analyzed in two heating cycles to produce an amorphous form. The first cycle was to measure the Tm of the crystalline form and the second cycle was for obtaining the Tg of amorphous indomethacin. The freeze-dried complexes and crystalline arginine, histidine and lysine were undergone one heating cycle to determine the Tg or Tm. The Tg described by Gordon–Taylor[39] was determined for drug–basic amino acids binary systems using the given equations below.
The Gordon–Taylor equation from composite glasses:3 [drawing 3]
T g(mix) is the glass transition temperature of a binary mixture, w1 and w2 are the weight fraction and Tg1 and Tg2 are the glass transitions temperature of individual compound in the mixture, K is typically considered an empirical constant:4 [drawing 4] where p1 and p2 are the powder densities of the single amorphous components. The crystalline densities of compounds (pIND = 1.379 g cm^−3pARG = 1.325 g cm^−3, pHIS = 1.412 g cm^−3 and pLYS = 1.237 g cm^−3) were used as approximation because small differences in density were reported between crystalline and amorphous form of small molecular compound.[9]

[5] = design: method as in as printed in each cell: ref 60, 62, 63, 10, 64; conditions: cited from earlier work
[6] = pH-solubility study, shake flask method; type: physicochemical; conditions: mean ± SD n = 3
Protocol: The samples were then filtered using a membrane filter (syringe filter, 0.45 μm sterile). The filtered solutions were diluted within the range of calibration curves and analyzed spectrophotometrically at 260 nm.

[7] = Phase solubility diagrams of indomethacin in basic amino acid solutions and complexation efficiency; type: physicochemical; conditions: 30 °C
Protocol: After equilibration, the mixtures were centrifuged at 3750 rpm for 10 minutes (Beckman Coulter Allegra X-12 Series). […] The supernatant was filtered via a membrane filter (syringe filter, 0.45 μm sterile). The solutions were then diluted within the calibration curve range and analyzed spectrophotometrically at 260 nm. The precipitates (solid phase) were filtered again using filter paper (Whatman Grade 3). The solid phase was dried in an oven at 70 °C for 30 minutes, then examined using FTIR.
The complexation or solubilizing efficiency (CE)[36] was calculated from the slope of the linear drug–amino acid phase solubility (PS) diagram using the following eqn (1):1 [drawing 1] where K1:1 indicates to the stability constant, which is used to compare the affinity of drug to different amino acids. S0 refers to the intrinsic solubility, [drug–amino acid complex] is the concentration of dissolved drug–amino acid complex, [amino acid] is the concentration of dissolved free amino acid and slope is the slope of the phase solubility diagram.

[8] = Hydrotropic solubilization in amino acid solutions at controlled pH; type: physicochemical
Protocol: The pH of the solutions was adjusted by adding 0.1 M hydrochloric acid and monitored with a pH meter (OXOID limited, England). Excess indomethacin was then added to the amino acid solutions. The suspension was stirred with a magnetic stirrer for 24 hours at 30 ± 2 °C or 45 ± 2 °C until it is equilibrated followed by adjusting the pH again. The samples were then filtered via a membrane filter (syringe filter, 0.45 μm sterile).

[9] = Physical and chemical stability of indomethacin in solution (UV-Vis); type: physicochemical
Protocol: Spectra were collected using the UV Lambda software over the wavelength range of 400 nm–200 nm. The same solvent without the drug/amino acid was used as the reference. Samples were analyzed at identical conditions: slit width 1 nm, bandwidth 0.5 nm, pair cuvette cells 1 cm.
The results were recorded for samples stored over a week at ambient temperature (25 ± 1 °C). Chemical stability was confirmed by measuring the UV absorbance at 320 nm.

[10] = Drug content and chemical stability of freeze-dried mixtures by UV-Vis; type: physicochemical; conditions: with all amino acids, peak position at 320 nm
Protocol: The resulting filtrates were frozen for 24 hours at −80 °C and then freeze-dried for 48 hours (LTE Scientific Lyotrap Freeze Dryer, Great Britain, Greenfield, Oldham) with the system temperature of −51 ± 2 °C, pressure of around 0.1 mbar and the vacuum pump operated at a flow rate of 21 m^3 h^−1. The freeze-dried samples were then transferred into a plastic vacuum desiccator containing phosphorous pentoxide desiccant (P2O5) at ambient temperature (22 ± 2 °C). Indomethacin–sodium salt was also produced for comparison purposes.
The freeze-dried samples were prepared by dissolving 10 mg freeze-dried materials in water in a 10 mL volumetric flask. The solutions were then diluted to concentrations that fall within the calibration curve and analyzed at 320 nm. The percentage drug content[37] was calculated by eqn (2)2 [drawing 2]

[11] = design: method as in ref 42 = [42]; Archontaki H. A. Kinetic Study on the Degradation of lndomethacin in Alkaline Aqueous Solutions by Derivative Ultraviolet Spectrophotometry Analyst 1995 120 1 8; conditions: pH = 13; cited from earlier work

Compound: CC[C@H](C)[C@H](N)C(=O)O [Isoleucine, L-isoleucine]
Water solubility [1]: 0.41 g/100 mL
pI (isoelectric point) [2]: 6.04
log p (partition coefficient) [3]: −1.70

Tg, Gordon–Taylor (glass transition temperature) [4]: 37.0 °C
Compound: N[C@@H](Cc1c[nH]cn1)C(=O)O [Histidine, L-histidine]
Water solubility [1]: 4.20 g/100 mL
pI (isoelectric point) [2]: 7.59
Tg, lit. (glass transition temperature) [5]: 37.0 (ref. [63]) °C

Compound: NCC(=O)O [Glycine, glycine]
pI (isoelectric point) [2]: 5.97

Compound: NCCCC[C@H](N)C(=O)O [Lysine, L-lysine]
Tg, Gordon–Taylor (glass transition temperature) [4]: 68.0 °C
Water solubility [1]: Very soluble
pI (isoelectric point) [2]: 9.47
Tg, lit. (glass transition temperature) [5]: 68.0 (ref. [63]) °C

Compound: N=C(N)NCCC[C@H](N)C(=O)O [Arginine, L-arginine]
Tg, Gordon–Taylor (glass transition temperature) [4]: 55.0 °C

solubility at 24 h ([6]; 25 °C, simulated gastric fluid, thermodynamic from solid, 25 ± 2 °C, water pH 1.2, unionized form, read-out: Intrinsic solubility (S0)): 0.95 µM (≈ 0.34 µg/mL)
solubility at 24 h ([6]; 25 ± 2 °C, water pH 6.3, ionized and unionized forms, read-out: Aqueous solubility (S)): 64.2 µM (≈ 23 µg/mL)
solubility at 24 h ([6]; 30 °C, aqueous buffer, thermodynamic from solid, 30 ± 2 °C, water pH 6.3, ionized and unionized forms, read-out: Aqueous solubility (S)): 81.6 µM (≈ 29.2 µg/mL)
solubility at 24 h ([6]; 30 ± 2 °C, water pH 1.2, unionized form, read-out: Intrinsic solubility (S0)): 1.18 µM (≈ 0.422 µg/mL)
Phase solubility diagram type (Higuchi and Connors) ([7]; indomethacin in arginine solution above 250 mM): AN-type
Phase solubility diagram type (Higuchi and Connors) ([7]; indomethacin in arginine solution below 250 mM): AL-type
Phase solubility diagram type (Higuchi and Connors) ([7]; indomethacin in lysine solutions): Bs-type
Solubility improvement of ionized indomethacin compared to aqueous solubility at same pH without histidine ([8]; 0.35 M histidine solution, pH 7): ~8 fold
Solubility improvement of unionized indomethacin compared to intrinsic solubility in water ([8]; 1.5 M isoleucine solution, pH 1.2, 30 °C): ~25 fold
Solubility improvement of unionized indomethacin compared to intrinsic solubility in water ([8]; 1.6 M arginine solution, pH 1.2, 30 °C): ~11 fold
Solubility change of unionized indomethacin compared to intrinsic solubility in water ([8]; glycine solution, same concentration, pH 1.2, 30 °C): did not change
Stability in solution (UV absorbance) ([9]; arginine solution, pH 10.3): gradually degraded after 24 hours
Stability in solution (UV absorbance) ([9]; basic amino acid solutions, pH 6.3 to 10.3, duration of experiment less than 24 hours): remains stable
Stability in solution (UV absorbance) ([9]; histidine solution, pH 7.5): stable over a week
Stability of indomethacin concentration in lysine aqueous solution on storage ([9]; lysine concentration between 27 and 37 mM (supersaturated, partial precipitation)): dropped after 1 day of storage
Stability of indomethacin concentration in lysine aqueous solution on storage ([9]; lysine concentrations below 27 mM, examined for ten days): appears stable
Stability in solution (UV absorbance) ([9]; lysine solution, pH 10): gradually degraded after 24 hours
Chemical stability after freeze-drying [10]: chemically stable
Tg, exp. (glass transition temperature) ([4]; DSC 5 °C/min, n = 3, IND melt quench, mixtures freeze-dried): 42.1 ± 0.5 °C
Tg, Gordon–Taylor (glass transition temperature) [4]: 42.1 °C
Compound: COc1ccc2c(c1)c(CC(=O)O)c(C)n2C(=O)c1ccc(Cl)cc1 [Indomethacin]
Water solubility [1]: 0.009 g/100 mL
log p (partition coefficient) [3]: 4.05
Stability in solution of high pH [11]: rapidly hydrolyzed
Tg, lit. (glass transition temperature) [5]: 42.0 (ref. [60]) °C
